Columns and labels:
recombinant mGluR1 = biological target: T1, recombinant mGluR1 (Homo sapiens, UniProt Q13255); test: Assay of Group I receptor antagonist activity (FLIPR [Ca2+]i mobilization; secondary IP3 turnover) in cells expressing mGluR1; format: cell-based
T1 construct: expressed in transfected cells
Method: (§1) For FLIPR analysis, cells expressing human mGluR5d or recombinant mGluR1 as described in WO97/05252 were seeded on collagen coated clear bottom 96-well plates with black sides and analysis of [Ca^2+]i mobilization was done 24 h after seeding. FLIPR experiments were done using a laser setting of 0.800 W and a 0.4 second CCD camera shutter speed. Each FLIPR experiment was initiated with 160 μl of buffer present in each well of the cell plate. After each addition of the compound, the fluorescence signal was sampled 50 times at 1 second intervals followed by 3 samples at 5 second intervals. Responses were measured as the peak height of the response within the sample period. EC50 and IC50 determinations were made from data obtained from 8-point concentration response curves (CRC) performed in duplicate. Agonist CRC were generated by scaling all responses to the maximal response observed for the plate. […]
(§2) We have validated a secondary functional assay for mGluR5d or recombinant mGluR1 as described in WO97/05252 based on Inositol Phosphate (IP3) turnover. IP3 accumulation is measured as an index of receptor mediated phospholipase C turnover. […] Antagonist activity was determined by pre-incubating test compounds for 15 min, then incubating in the presence of glutamate (80 μM) or DHPG (30 μM) for 30 min. […]

human mGluR5d = biological target: T2, human mGluR5d (Homo sapiens, UniProt P41594); test: Assay of Group I receptor antagonist activity (FLIPR [Ca2+]i mobilization; secondary IP3 turnover) in cells expressing mGluR5d; format: cell-based; conditions: read-out: mGluR5 IC50
T2 construct: expressed in transfected cells
T2 sequence (P41594 21-942 isoform P41594-3 limits assumed): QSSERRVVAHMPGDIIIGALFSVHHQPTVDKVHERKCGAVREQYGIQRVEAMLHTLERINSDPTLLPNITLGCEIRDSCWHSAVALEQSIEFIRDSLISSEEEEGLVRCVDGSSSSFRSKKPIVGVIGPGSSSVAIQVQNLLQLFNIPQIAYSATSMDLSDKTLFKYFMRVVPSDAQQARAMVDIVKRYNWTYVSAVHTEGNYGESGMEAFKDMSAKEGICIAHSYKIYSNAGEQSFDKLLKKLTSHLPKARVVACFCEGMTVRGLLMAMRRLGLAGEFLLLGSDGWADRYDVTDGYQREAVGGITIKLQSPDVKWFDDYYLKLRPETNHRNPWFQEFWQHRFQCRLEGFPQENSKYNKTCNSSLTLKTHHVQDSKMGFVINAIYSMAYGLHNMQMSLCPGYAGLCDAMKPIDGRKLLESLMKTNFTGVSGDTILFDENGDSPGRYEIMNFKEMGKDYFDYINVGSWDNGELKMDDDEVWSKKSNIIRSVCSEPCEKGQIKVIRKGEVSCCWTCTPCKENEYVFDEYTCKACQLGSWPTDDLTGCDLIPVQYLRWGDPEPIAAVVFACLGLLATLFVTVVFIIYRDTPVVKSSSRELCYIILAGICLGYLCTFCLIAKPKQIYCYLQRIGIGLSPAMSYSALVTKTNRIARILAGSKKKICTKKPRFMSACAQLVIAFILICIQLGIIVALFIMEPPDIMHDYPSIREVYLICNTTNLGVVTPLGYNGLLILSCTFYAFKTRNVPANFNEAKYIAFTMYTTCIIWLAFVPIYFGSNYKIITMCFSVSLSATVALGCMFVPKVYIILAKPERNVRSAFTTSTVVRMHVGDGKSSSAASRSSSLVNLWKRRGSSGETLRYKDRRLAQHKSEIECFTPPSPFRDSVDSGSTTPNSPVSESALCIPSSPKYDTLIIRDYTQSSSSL
Method: as §1, §2

T1 sequence (Q13255 19-1194): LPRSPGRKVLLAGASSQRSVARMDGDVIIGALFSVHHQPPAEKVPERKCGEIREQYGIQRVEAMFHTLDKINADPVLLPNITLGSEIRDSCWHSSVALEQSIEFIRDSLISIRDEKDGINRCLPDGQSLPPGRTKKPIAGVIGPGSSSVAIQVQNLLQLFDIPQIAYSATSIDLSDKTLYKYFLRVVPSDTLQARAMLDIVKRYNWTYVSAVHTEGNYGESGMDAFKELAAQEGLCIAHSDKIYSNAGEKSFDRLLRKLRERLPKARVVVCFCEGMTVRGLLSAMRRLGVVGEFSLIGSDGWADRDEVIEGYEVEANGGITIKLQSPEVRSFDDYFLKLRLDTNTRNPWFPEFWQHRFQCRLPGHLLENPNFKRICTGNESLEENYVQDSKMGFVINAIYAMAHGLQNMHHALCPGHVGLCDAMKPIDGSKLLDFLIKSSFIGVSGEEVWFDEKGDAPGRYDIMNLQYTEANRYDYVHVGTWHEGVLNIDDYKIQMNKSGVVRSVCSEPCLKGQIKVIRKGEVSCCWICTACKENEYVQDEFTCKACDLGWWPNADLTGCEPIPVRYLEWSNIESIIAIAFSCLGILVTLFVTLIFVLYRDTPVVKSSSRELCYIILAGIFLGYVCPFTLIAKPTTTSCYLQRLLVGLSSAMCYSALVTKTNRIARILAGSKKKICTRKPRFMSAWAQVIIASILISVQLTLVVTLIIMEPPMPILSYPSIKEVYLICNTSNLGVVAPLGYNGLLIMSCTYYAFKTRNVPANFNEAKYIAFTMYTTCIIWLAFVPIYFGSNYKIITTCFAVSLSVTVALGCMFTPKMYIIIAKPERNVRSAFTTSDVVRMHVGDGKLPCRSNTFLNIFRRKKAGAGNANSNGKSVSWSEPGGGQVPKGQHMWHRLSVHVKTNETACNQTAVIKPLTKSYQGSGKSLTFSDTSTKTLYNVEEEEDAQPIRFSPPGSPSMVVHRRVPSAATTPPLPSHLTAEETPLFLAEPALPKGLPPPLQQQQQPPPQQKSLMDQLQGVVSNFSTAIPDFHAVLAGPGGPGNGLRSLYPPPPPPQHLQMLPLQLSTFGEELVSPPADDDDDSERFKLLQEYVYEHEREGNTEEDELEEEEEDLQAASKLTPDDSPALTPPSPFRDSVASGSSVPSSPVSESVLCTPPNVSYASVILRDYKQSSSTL

CC1CCc2nc(C(=O)N[C@H]3CC[C@H](C)CC3)cnc2C1 (relative stereo) [6-methyl-N-(trans-4-methylcyclohexyl)-5,6,7,8-tetrahydroquinoxaline-2-carboxamide]
IC50 (recombinant mGluR1): 0.052 µM
IC50 (human mGluR5d): 7.29 µM

Source: patent US20050004130A1, “New metabotropic glutamate receptor compounds” (AstraZeneca and NPS Pharmaceuticals, Inc., priority 2003, published 2005)
